Patent US8192962B2, “Processes for detecting toxic substances” (Daikin Industries, Ltd., priority 2001, dated 2012)

Test system: Detoxification protein genes
Test: DNA chip mRNA expression in yeast, detoxification protein genes (Table 8)
Format: cell-based, Saccharomyces cerevisiae S288C
How it was run: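 In this screen, yeast in logarithmic growth are challenged for two hours with a toxic substance at a non-lethal inhibitory concentration. Their mRNA, converted to Cy3- or Cy5-labeled cDNA, hybridizes at 65° C. to a chip spanning every yeast gene, and expression is expressed as a ratio to untreated cells.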

CCCCC[C@H](O)CC(=O)CCc1ccc(O)c(OC)c1 [(13), gingerol]
The level of expressed mRNA in the presence of chemical substance/The level of expressed mRNA in the absence of chemical substance (yeast gene YBL064C): 4.1 | The level of expressed mRNA in the presence of chemical substance/The level of expressed mRNA in the absence of chemical substance (yeast gene YBR244W): 0.4 | The level of expressed mRNA in the presence of chemical substance/The level of expressed mRNA in the absence of chemical substance (yeast gene YBR293W): 3.0 | The level of expressed mRNA in the presence of chemical substance/The level of expressed mRNA in the absence of chemical substance (yeast gene YDL168W): 1.3 | The level of expressed mRNA in the presence of chemical substance/The level of expressed mRNA in the absence of chemical substance (yeast gene YDR256C): 1.1 | The level of expressed mRNA in the presence of chemical substance/The level of expressed mRNA in the absence of chemical substance (yeast gene YDR453C): 1.4 | The level of expressed mRNA in the presence of chemical substance/The level of expressed mRNA in the absence of chemical substance (yeast gene YDR538W): 0.7 | The level of expressed mRNA in the presence of chemical substance/The level of expressed mRNA in the absence of chemical substance (yeast gene YEL027W): 0.7 | The level of expressed mRNA in the presence of chemical substance/The level of expressed mRNA in the absence of chemical substance (yeast gene YER185W): 2.1 | The level of expressed mRNA in the presence of chemical substance/The level of expressed mRNA in the absence of chemical substance (yeast gene YFL050C): 1.2 | The level of expressed mRNA in the presence of chemical substance/The level of expressed mRNA in the absence of chemical substance (yeast gene YGR088W): 1.2 | The level of expressed mRNA in the presence of chemical substance/The level of expressed mRNA in the absence of chemical substance (yeast gene YGR138C): 0.6 | The level of expressed mRNA in the presence of chemical substance/The level of expressed mRNA in the absence of chemical substance (yeast gene YGR209C): 1.4 | The level of expressed mRNA in the presence of chemical substance/The level of expressed mRNA in the absence of chemical substance (yeast gene YHR008C): 1.2 | The level of expressed mRNA in the presence of chemical substance/The level of expressed mRNA in the absence of chemical substance (yeast gene YHR048W): 1.1 | The level of expressed mRNA in the presence of chemical substance/The level of expressed mRNA in the absence of chemical substance (yeast gene YIR002C): 1.2 | The level of expressed mRNA in the presence of chemical substance/The level of expressed mRNA in the absence of chemical substance (yeast gene YJL101C): 1.0 | The level of expressed mRNA in the presence of chemical substance/The level of expressed mRNA in the absence of chemical substance (yeast gene YKL064W): 1.6 | The level of expressed mRNA in the presence of chemical substance/The level of expressed mRNA in the absence of chemical substance (yeast gene YKR066C): 0.6 | The level of expressed mRNA in the presence of chemical substance/The level of expressed mRNA in the absence of chemical substance (yeast gene YKR106W): 1.4 | The level of expressed mRNA in the presence of chemical substance/The level of expressed mRNA in the absence of chemical substance (yeast gene YLL028W): 4.1 | The level of expressed mRNA in the presence of chemical substance/The level of expressed mRNA in the absence of chemical substance (yeast gene YLL057C): 1.4 | The level of expressed mRNA in the presence of chemical substance/The level of expressed mRNA in the absence of chemical substance (yeast gene YLR046C): 1.2 | The level of expressed mRNA in the presence of chemical substance/The level of expressed mRNA in the absence of chemical substance (yeast gene YML028W): 1.6 | The level of expressed mRNA in the presence of chemical substance/The level of expressed mRNA in the absence of chemical substance (yeast gene YMR015C): 0.4 | The level of expressed mRNA in the presence of chemical substance/The level of expressed mRNA in the absence of chemical substance (yeast gene YMR038C): 1.7 | The level of expressed mRNA in the presence of chemical substance/The level of expressed mRNA in the absence of chemical substance (yeast gene YNL239W): 3.6 | The level of expressed mRNA in the presence of chemical substance/The level of expressed mRNA in the absence of chemical substance (yeast gene YNL241C): 4.9 | The level of expressed mRNA in the presence of chemical substance/The level of expressed mRNA in the absence of chemical substance (yeast gene YNL259C): 1.1 | The level of expressed mRNA in the presence of chemical substance/The level of expressed mRNA in the absence of chemical substance (yeast gene YOL158C): 1.4 | The level of expressed mRNA in the presence of chemical substance/The level of expressed mRNA in the absence of chemical substance (yeast gene YOR251C): 1.0 | The level of expressed mRNA in the presence of chemical substance/The level of expressed mRNA in the absence of chemical substance (yeast gene YOR273C): 2.6 | The level of expressed mRNA in the presence of chemical substance/The level of expressed mRNA in the absence of chemical substance (yeast gene YPR200C): 0.6
